Our source for the 2-AG accumulation, % of vehicle control and Kd values is patent US8362000B2, “Azetidinyl diamides as monoacylglycerol lipase inhibitors” (Janssen Pharmaceutica NV, priority 2009, dated 2013).

What is called Kd is the constant that tells how readily two partners part at equilibrium.

The target of one test is T1, MGL (Rattus norvegicus, UniProt Q8R431).
T1 construct: one g rat brain was homogenized using a Polytron homogenizer; from tissue; host or cells: rat brain homogenate
T1 sequence (Q8R431 1-303): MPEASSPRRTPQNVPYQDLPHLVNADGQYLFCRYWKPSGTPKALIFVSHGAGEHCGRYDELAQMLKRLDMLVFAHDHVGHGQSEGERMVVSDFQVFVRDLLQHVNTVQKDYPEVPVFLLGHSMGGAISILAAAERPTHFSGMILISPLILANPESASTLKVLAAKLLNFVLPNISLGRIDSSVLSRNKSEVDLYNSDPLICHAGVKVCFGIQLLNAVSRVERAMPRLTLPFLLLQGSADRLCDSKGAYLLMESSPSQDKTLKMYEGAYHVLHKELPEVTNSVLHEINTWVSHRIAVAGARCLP
As to the kind of experiment: 2-AG accumulation assay in rat brain homogenate. The format is biochemical. Particulars: rat brain homogenate, 2-AG accumulation as percent of vehicle; for 2-AG accumulation, % of vehicle control at 1 µM: compound 1 μM, read-out: Rat Brain 2AG % VehCntrl (%) @ 1 μM; for 2-AG accumulation, % of vehicle control at 10 µM: compound 10 μM, read-out: Rat Brain 2AG % VehCntrl (%) @ 10 μM.

Another test concerns the target T2, mutant MGL (Homo sapiens, UniProt Q99685, L169S/L176S).
T2 sequence (Q99685 1-303 L169S/L176S): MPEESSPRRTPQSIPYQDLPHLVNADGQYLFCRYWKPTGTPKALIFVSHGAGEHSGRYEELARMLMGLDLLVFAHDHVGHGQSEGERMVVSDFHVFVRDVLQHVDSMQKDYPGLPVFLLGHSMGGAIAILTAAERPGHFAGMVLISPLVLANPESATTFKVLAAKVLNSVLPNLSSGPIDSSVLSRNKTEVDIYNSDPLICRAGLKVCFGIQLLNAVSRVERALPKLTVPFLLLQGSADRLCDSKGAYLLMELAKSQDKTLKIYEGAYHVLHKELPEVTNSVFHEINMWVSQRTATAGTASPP
As to the kind of experiment: MGL ThermoFluor assay - mutant. Particulars: read-out: MGL mutant ThermoFluor Kd. The format is binding.

Setting [1] is: ThermoFluor thermal stability binding assay.
Setting [2] is: ThermoFluor concentration-response.

Molecules are shown by their SMILES. Where two headings read alike, the source gives them in different places.

Procedure for mutant MGL: The ThermoFluor (TF) assay is a 384-well plate-based binding assay that measures thermal stability of proteins^1,2. […] TF dye used in all experiments was 1,8-ANS (Invitrogen: A-47). Final TF assay conditions used for MGL studies were 0.07 mg/ml of mutant MGL, 100 μM ANS, 200 mM NaCl, 0.001% Tween-20 in 50 mM PIPES (pH=7.0).
Screening compound plates contained 100% DMSO compound solutions at a single concentration. […] Columns 12 and 24 were used as DMSO reference and contained no compound. […] Following compound dispension, protein and dye solutions were added to achieve the final assay volume of 3 μL.
Bar-coded assay plates were robotically loaded onto a thermostatically controlled PCR-type thermal block and then heated from 40 to 90° C. degrees at a ramp-rate of 1° C./min for all experiments. Fluorescence was measured by continuous illumination with UV light (Hamamatsu LC6), supplied via fiber optics and filtered through a band-pass filter (380-400 nm; >60D cutoff). Fluorescence emission of the entire 384-well plate was detected by measuring light intensity using a CCD camera (Sensys, Roper Scientific) filtered to detect 500±25 nm, resulting in simultaneous and independent readings of all 384 wells. A single image with 20-sec exposure time was collected at each temperature, and the sum of the pixel intensity in a given area of the assay plate was recorded vs temperature and fit to standard equations to yield the Tm^1. • 1.
For some experiments, quantitative NMR spectroscopy (qNMR) was used to measure concentration of the initial 100% DMSO compound solutions and, using the same fitting method, qKd values were determined

For `O=C(c1ccccc1)N1CCN(C2CN(C(=O)c3sc4cc(-c5ccccc5)ccc4c3Cl)C2)CC1` [Cpd 344], the 2-AG accumulation, % of vehicle control at 1 µM at MGL came out at 238%. Further, at mutant MGL (setting [1]), the Kd was determined as 10 nM.
The like results for `O=C(c1ccc2c(c1)CCCN2C(=O)C1CCCCC1)N1CC(N2CCN(C(=O)c3nccs3)CC2)C1` [Cpd 360] were, in that order, 819% and 68 nM.
Regarding `O=C(c1ccc(-c2ccc(F)cc2F)cc1)N1CC(N2CCN(C(=O)c3cscn3)CC2)C1` [Cpd 226, 1-{1-[(2′,4′-Difluorobiphenyl-4-yl)carbonyl]azetidin-3-yl}-4-(1,3-thiazol-4-ylcarbonyl)piperazine], at MGL, the 2-AG accumulation, % of vehicle control at 10 µM worked out at 652%. The equilibrium dissociation constant (Kd) at mutant MGL (setting [1]) amounted to 20 nM.
For the compound `Cc1cc(C(=O)N2CC(N3CCN(C(=O)c4ccccc4)CC3)C2)ccc1-c1ccc(Cl)c(C(F)(F)F)c1` [Cpd 260, 1-(1-{[4′-Chloro-2-methyl-3′-(trifluoromethyl)biphenyl-4-yl]carbonyl}azetidin-3-yl)-4-(phenylcarbonyl)piperazine], on MGL, the 2-AG accumulation, % of vehicle control at 1 µM stood at 140%. The Kd on mutant MGL (setting [1]) stood at 20 nM.
Take `O=C(c1nccs1)N1CCN(C2CN(C(=O)c3ccc(-c4ccccc4)cc3F)C2)CC1` [Cpd 1405, 1-{1-[(3-Fluorobiphenyl-4-yl)carbonyl]azetidin-3-yl}-4-(1,3-thiazol-2-ylcarbonyl)piperazine]: the 2-AG accumulation, % of vehicle control at 1 µM at MGL amounted to 197%. Besides, the Kd at mutant MGL (setting [2]) is 2 nM.
Regarding `O=C(c1cscn1)N1CCN(C2CN(C(=O)c3cc4cccc(C(F)(F)F)c4s3)C2)CC1` [Cpd 332, 1-(1,3-Thiazol-4-ylcarbonyl)-4-(1-{[7-(trifluoromethyl)-1-benzothiophen-2-yl]carbonyl}azetidin-3-yl)piperazine], on MGL, the 2-AG accumulation, % of vehicle control at 1 µM is 182%. The Kd at mutant MGL (setting [1]) was determined as 109 nM.
For `O=C(c1ccccc1)N1CCN(C2CN(C(=O)c3ccc(NCc4ccccc4)c(I)c3)C2)CC1` [Cpd 542], the 2-AG accumulation, % of vehicle control at 1 µM at MGL worked out at 366%. At mutant MGL (setting [2]), the Kd was 14 nM.
On the same counts, the results for `Cc1cc(C(=O)N2CC(N3CCN(C(=O)c4cscn4)CC3)C2)ccc1-c1ccccc1` [Cpd 1406] are 169% and 29 nM.
Regarding `O=C(c1ccccc1)N1CCN(C2CN(C(=O)c3ccc(OCc4ccc(Cl)c(Cl)c4)cc3)C2)CC1` [Cpd 379, 1-[1-({4-[(3,4-dichlorobenzyl)oxy]phenyl}carbonyl)azetidin-3-yl]-4-(phenylcarbonyl)piperazine], the 2-AG accumulation, % of vehicle control at 10 µM on MGL is 760%. On mutant MGL (setting [1]), the Kd came out at 40 nM.
Take `O=C(c1ccc(Oc2ccccn2)c(F)c1)N1CC(N2CCN(C(=O)c3nccs3)CC2)C1` [Cpd 909]: the 2-AG accumulation, % of vehicle control at 1 µM at MGL amounted to 144%. In addition, at mutant MGL (setting [2]), the Kd was determined as 325 nM.
In the case of `O=C(c1ccccc1)N1CCN(C2CN(C(=O)c3ccc4c(ccn4-c4cccc(C(F)(F)F)c4)c3)C2)CC1` [Cpd 129, 1-[3-(Trifluoromethyl)phenyl]-5-({3-[4-(phenyl-carbonyl)piperazin-1-yl]azetidin-1-yl}carbonyl)-1H-indole], at MGL, the 2-AG accumulation, % of vehicle control at 1 µM was 499%. Further, on mutant MGL (setting [1]), the Kd stood at 10 nM.
Turning to `O=C(c1ccc(-c2ccccc2)cc1)N1CC(N2CCN(C(=O)c3ccco3)CC2)C1` [Cpd 6, 1-[1-(Biphenyl-4-ylcarbonyl)azetidin-3-yl]-4-(furan-2-ylcarbonyl)piperazine], the 2-AG accumulation, % of vehicle control at 0.01 µM at MGL (compound 0.01 μM, read-out: Rat Brain 2AG % VehCntrl (%) @ 0.01 μM) was found to be 75%. Besides, the 2-AG accumulation, % of vehicle control at 0.1 µM at MGL (compound 0.1 μM, read-out: Rat Brain 2AG % VehCntrl (%) @ 0.1 μM) was determined as 238%. Moreover, at MGL, the 2-AG accumulation, % of vehicle control at 1 µM was found to be 554% and the 2-AG accumulation, % of vehicle control at 10 µM was determined as 623%. In addition, on mutant MGL (setting [2]), the Kd was 3.6 nM.
As for `O=C(c1ccc(OCc2cccc(Br)n2)cc1)N1CC(N2CCN(C(=O)c3cscn3)CC2)C1` [Cpd 987], on MGL, the 2-AG accumulation, % of vehicle control at 1 µM stood at 320%. Moreover, the Kd at mutant MGL (setting [1]) turned out to be 327 nM.
Turning to `O=C(c1cscn1)N1CCN(C2CN(C(=O)c3sc4cc(F)ccc4c3Cl)C2)CC1` [Cpd 929], the 2-AG accumulation, % of vehicle control at 1 µM at MGL was determined as 301%. Also, on mutant MGL (setting [1]), the Kd was 20 nM.
The like results for `O=C(c1cc2cccc(C(F)(F)F)c2s1)N1CC(N2CCN(C(=O)c3nccs3)CC2)C1` [Cpd 328] were, in that order, 378% and 81.6 nM.
On to `O=C(c1ccc(-c2cc(Cl)cc(Cl)c2)cc1)N1CC(N2CCN(C(=O)c3nccs3)CC2)C1` [Cpd 164, 1-{1-[(3′,5′-Dichlorobiphenyl-4-yl)carbonyl]azetidin-3-yl}-4-(1,3-thiazol-2-ylcarbonyl)piperazine], for which the 2-AG accumulation, % of vehicle control at 10 µM at MGL amounted to 969%. Also, the Kd on mutant MGL (setting [2]) came to 1.11 nM.
As to `O=C(c1ccc2c(c1)CCCN2S(=O)(=O)c1cccc(F)c1)N1CC(N2CCN(C(=O)c3nccs3)CC2)C1` [Cpd 368, 1-[(3-Fluorophenyl)sulfonyl]-6-({3-[4-(1,3-thiazol-2-ylcarbonyl)piperazin-1-yl]azetidin-1-yl}carbonyl)-1,2,3,4-tetrahydroquinoline], the 2-AG accumulation, % of vehicle control at 1 µM at MGL was 434%. For the same compound, on mutant MGL (setting [1]), the dissociation constant (Kd) is 55.1 nM.
With `O=C(c1ccccc1)N1CCN(C2CN(C(=O)c3ccc(Sc4cccc(Cl)c4)cc3)C2)CC1` [Cpd 427, 4-(1-{[4-(3-Chloro-phenylsulfanyl)phenyl]carbonyl}azetidin-3-yl)-1-(phenylcarbonyl)-piperazine], the 2-AG accumulation, % of vehicle control at 1 µM on MGL is 163%. The dissociation constant Kd on mutant MGL (setting [2]) came out at 33.5 nM.
`O=C(c1ccc(CSc2cccc(Cl)c2)cc1)N1CC(N2CCN(C(=O)c3cscn3)CC2)C1` [Cpd 956]: the 2-AG accumulation, % of vehicle control at 1 µM at MGL came to 514%. Moreover, at mutant MGL (setting [2]), the Kd stood at 81 nM.
As for `O=C(c1ccccc1)N1CCN(C2CN(C(=O)c3ccc(-c4ccc(F)c(Cl)c4)cc3Cl)C2)CC1` [Cpd 267, 1-{1-[(3,3′-Dichloro-4′-fluorobiphenyl-4-yl)carbonyl]azetidin-3-yl}-4-(phenylcarbonyl)piperazine], the 2-AG accumulation, % of vehicle control at 1 µM at MGL worked out at 130%. The dissociation constant Kd at mutant MGL (setting [1]) came out at 12.5 nM.
The like results for `Cc1oc(-c2ccccc2)cc1C(=O)N1CC(N2CCN(C(=O)c3nccs3)CC2)C1` [Cpd 1378] were, in that order, 493% and 25 nM.
As for `CN(c1ccccc1)c1ccc(C(=O)N2CC(N3CCN(C(=O)c4ccccc4)CC3)C2)cc1` [Cpd 40, N-Methyl-N-phenyl-4-({3-[4-(phenylcarbonyl)piperazin-1-yl]azetidin-1-yl}carbonyl)aniline], the 2-AG accumulation, % of vehicle control at 10 µM on MGL came out at 490%. In addition, at mutant MGL (setting [2]), the dissociation constant Kd amounted to 24.2 nM.
`O=C(c1ccccc1)N1CCN(C2CN(C(=O)c3sc4cc(F)ccc4c3Cl)C2)CC1` [Cpd 543]: on MGL, the 2-AG accumulation, % of vehicle control at 1 µM is 158%. The equilibrium dissociation constant (Kd) on mutant MGL (setting [1]) stood at 38 nM.
Take `O=C(c1ccc(OCc2cccc(Cl)c2)c(Cl)c1)N1CC(N2CCN(C(=O)c3nccs3)CC2)C1` [Cpd 401, 1-[1-({3-Chloro-4-[(3-chlorobenzyl)oxy]phenyl}carbon-yl)azetidin-3-yl]-4-(1,3-thiazol-2-ylcarbonyl)piperazine]: the 2-AG accumulation, % of vehicle control at 10 µM on MGL was determined as 762%. Besides, the Kd on mutant MGL (setting [1]) came to 1.67 nM.
For the compound `O=C(c1ccc(Sc2cccc(Cl)c2)cc1)N1CC(N2CCN(C(=O)c3nccs3)CC2)C1` [Cpd 428], the 2-AG accumulation, % of vehicle control at 1 µM at MGL worked out at 734%. The equilibrium dissociation constant (Kd) on mutant MGL (setting [2]) was 3.3 nM.
The like results for `O=C(c1cscn1)N1CC(N2CCN(C(=O)c3cc4cc(C(F)(F)F)ccc4s3)C(c3ccccc3)C2)C1` (stereo not drawn) [Cpd 905, 2-Phenyl-4-[1-(1,3-thiazol-4-ylcarbonyl)azetidin-3-yl]-1-{[5-(trifluoromethyl)-1-benzothiophen-2-yl]carbonyl}piperazine] were, in that order, 119% and 44 nM.
Turning to `O=C(c1ccc(OCc2cccc(Cl)c2)cc1)N1CC(N2CCN(C(=O)c3cscn3)CC2)C1` [Cpd 960], the 2-AG accumulation, % of vehicle control at 1 µM on MGL was determined as 896%. For the same compound, the equilibrium dissociation constant (Kd) on mutant MGL (setting [1]) came out at 36 nM.
`O=C(c1ccccc1)N1CCN(C2CN(C(=O)c3ccc(-c4ccccc4)cc3Cl)C2)CC1` [Cpd 612]: the 2-AG accumulation, % of vehicle control at 1 µM on MGL was 106%. In addition, at mutant MGL (setting [2]), the Kd was 78 nM.
On the same counts, the results for `O=C(c1ccc2c(ccn2-c2ncc(F)cn2)c1)N1CC(N2CCN(C(=O)c3nccs3)CC2)C1` [Cpd 1147, 1-(5-Fluoropyrimidin-2-yl)-5-({3-[4-(1,3-thiazol-2-ylcarbonyl)piperazin-1-yl]azetidin-1-yl}carbonyl)-1H-indole] are 892% and 3 nM.
As for `CC(C)(C)OC(=O)N1CCC(c2ccc(C(=O)N3CC(N4CCN(C(=O)c5cscn5)CC4)C3)cc2)CC1` [Cpd 903], at MGL, the 2-AG accumulation, % of vehicle control at 1 µM worked out at 908%. For the same compound, at mutant MGL (setting [1]), the dissociation constant Kd amounted to 78 nM.
